Assay [1] deals with PTPMeg2, pSTAT3, Bcl2, Bcl-XL, JAK2, c-Src in HCC827 cells. Briefly: Western blot of HCC827 cells treated with erlotinib. It is filed as cell-based, human.
Assay [2] has as its system Tu212 head and neck cancer xenografts. Briefly: Tu212 head and neck cancer xenografts in mice. Conditions: for Xenograft tumor growth, Tu212: erlotinib 40 mg/kg/d, niclosamide 20 mg/kg/d, two weeks. It counts as in vivo. Here is the method: Each group included 8 mice. Tumor volume was measured once every 2 days. After 14 days, the mice were sacrificed and the tumors were removed and analyzed. Representative tumor pictures were taken. B, Active caspase 3 and Ki 67 were analyzed in tumor tissues at the end of experiments by IHC staining and quantified. C, Expression levels of pEGFR, pSTAT3, Bcl2 and Bcl-XL in tumor tissues from various treatment groups were analyzed by Western blot.
First, head and neck cancer xenografts were generated using Tu212 cells.

In assay [3] the test system is HCC827/ER lung cancer xenografts. Conditions: niclosamide 20 mg/kg/d. The procedure: (§1) Each group includes 8 mice. Tumor volume was measured once every 2 days. After 32 days, the mice were sacrificed and the tumors were removed and analyzed. Representative tumor pictures were taken. B, active caspase-3 was analyzed in tumor tissues at the end of experiments by IHC staining and quantified as described in Materials and Methods. C, expression levels of pEGFR, pSTAT3, Bcl2, and Bcl-XL from tumor tissues in various treatment groups were analyzed by Western blot analysis.
(§2) The control group was treated with 0.5% DMSO vehicle.

A further assay deals with STAT3 (Homo sapiens, UniProt P40763). Conditions: cited from earlier work.
Assay [4] deals with STAT3 phosphorylation, Bcl2/Bcl-XL in Tu212 and Tu686 cells. Briefly: Western blot of Tu212 and Tu686 head and neck cancer cells. Particulars: erlotinib plus increasing concentrations of niclosamide, 48 h. It is filed as cell-based. A general note: A western blot detects proteins with antibodies after separation by electrophoresis.
Assay [5] deals with HCC827 lung cancer xenografts. Conditions: niclosamide 20 mg/kg/d. The procedure:
as §1, §2

Structures are written as SMILES.

The source of these data is patent US20150065526A1, “OVERCOMING ACQUIRED RESISTANCE TO CHEMOTHERAPY TREATMENTS THROUGH SUPPRESSION OF STAT3” (EMORY UNIVERSITY, priority 2013, published 2015).

STAT3, sequence (P40763 whole entry): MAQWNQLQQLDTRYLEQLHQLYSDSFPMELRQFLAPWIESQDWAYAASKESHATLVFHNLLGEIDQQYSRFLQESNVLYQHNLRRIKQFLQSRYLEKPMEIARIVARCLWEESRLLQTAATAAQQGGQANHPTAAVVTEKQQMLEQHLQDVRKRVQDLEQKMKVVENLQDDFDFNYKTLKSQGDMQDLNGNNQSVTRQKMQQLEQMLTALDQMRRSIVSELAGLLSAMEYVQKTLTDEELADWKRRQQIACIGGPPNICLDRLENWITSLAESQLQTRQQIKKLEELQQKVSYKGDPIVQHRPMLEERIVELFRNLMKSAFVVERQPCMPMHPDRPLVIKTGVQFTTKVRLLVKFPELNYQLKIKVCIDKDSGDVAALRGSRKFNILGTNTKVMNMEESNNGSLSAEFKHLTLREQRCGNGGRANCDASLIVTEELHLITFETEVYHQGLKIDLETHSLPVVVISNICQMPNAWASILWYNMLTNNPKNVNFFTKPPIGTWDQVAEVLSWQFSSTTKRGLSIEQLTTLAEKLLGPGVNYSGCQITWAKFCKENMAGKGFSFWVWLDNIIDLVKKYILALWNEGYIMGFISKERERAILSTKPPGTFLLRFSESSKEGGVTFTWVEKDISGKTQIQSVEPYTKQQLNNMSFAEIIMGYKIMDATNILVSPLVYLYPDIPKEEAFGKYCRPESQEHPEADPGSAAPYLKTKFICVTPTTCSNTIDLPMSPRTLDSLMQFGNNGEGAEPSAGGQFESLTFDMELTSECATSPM

With `C#Cc1cccc(Nc2ncnc3cc(OCCOC)c(OCCOC)cc23)c1` [erlotinib, N-(3-ethynylphenyl)-6,7-bis(2-methoxyethoxy)quinazolin-4-amine], in assay [1], the “JAK2 and c-Src phosphorylation” value was “inhibited JAK2 and c-Src phosphorylation”; the PTPMeg2 expression result is given as “downregulates PTPMeg2”; the STAT3/Bcl2/Bcl-XL pathway status entry is recorded as “activation of the STAT3/Bcl2/Bcl-XL pathway”. For the same compound, the “Xenograft tumor growth, Tu212” value in assay [2] is on record as “modest efficacy”. Moreover, in assay [3] (erlotinib 40 mg/kg/d, 32 days), the “Tumor volume, HCC827/ER xenografts” value is recorded as “tumor volumes comparable with those in the vehicle-treated control group”.
For the compound `O=C(Nc1ccc([N+](=O)[O-])cc1Cl)c1cc(Cl)ccc1O` [niclosamide], at STAT3, the “Activation of upstream proteins JAK2 and Src” value is “no obvious inhibitory effect”; the “STAT3 Tyr705 phosphorylation and transcriptional activity” value is on record as “can inhibit Tyr705 site phosphorylation as well as transcriptional activity of STAT3”. In assay [4], the “Erlotinib-induced STAT3 phosphorylation and Bcl2/Bcl-XL (Western blot)” value is “inhibited erlotinib-induced STAT3 phosphorylation and downregulated Bcl2/Bcl-XL in a dose-dependent manner”. Besides, the “Xenograft tumor growth, Tu212” value in assay [2] is listed as “modest efficacy”. Besides, the “Erlotinib-stimulated STAT3 phosphorylation, Bcl2 and Bcl-XL in tumor tissue lysates, Tu212” value in assay [2] (three mice in each treatment group) was “blocks erlotinib-stimulated STAT3 phosphorylation leading to decreased Bcl2 and Bcl-XL levels”. Moreover, the “STAT3 phosphorylation, Bcl2 and Bcl-XL in tumor lysates (Western blot), HCC827” value in assay [5] was “blocks STAT3 phosphorylation in association with reduced Bcl2 and Bcl-XL”. Further, the “STAT3 phosphorylation, Bcl2 and Bcl-XL in tumor lysates (Western blot), HCC827/ER” value in assay [3] is “blocks STAT3 phosphorylation in association with reduced Bcl2 and Bcl-XL”.
